What all share (test): Cell proliferation assay (CellTiter-Glo)
Common to all, as to format: cell-based
For orientation: ATP-based viability assays read luminescence as a measure of living cells.

One assay has as its system KM12 (TPM3-TRKA). The conditions noted are these: Homo sapiens, anti-cell proliferation, 72 hours. The essentials:
(§1)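 Cells seeded 24 h, then exposed to compounds for 72 h at 37° C., 5% CO2. Proliferation read by CellTiter-Glo luminescent ATP detection; IC50 from dose-response fits.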

For a further assay, the system named is KG-1 cell (OP2-FGFR1). Particulars: Homo sapiens, anti-cell proliferation, 72 hours. An outline of the steps:
as §1

Another assay has as its target T1, BaF3 EML4-ALK (Homo sapiens, UniProt Q9UM73).
T1 construct: The EML4-ALK gene (variant 1) was synthesized at GenScript and cloned into pCDH-CMV-MCS-EF1-Puro plasmid (System Biosciences, Inc); fused on or other part: EML4 N-terminal part (variant 1: exons 1-13, with the coiled-coil that oligomerises the fusion) fused to the intracellular part of ALK, which contains the kinase domain; Q9HC35 (Echinoderm microtubule-associated protein-like 4)
The conditions noted are these: anti-cell proliferation, 72 hours. An outline of the steps:
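Ba/F3 cells were lentivirally transduced with EML4-ALK variant 1 and selected for puromycin resistance and IL-3-independent growth. Proliferation was measured by CellTiter-Glo ATP luminescence to give IC50.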

Each structure is given as a SMILES string.

T1 sequence (Q9UM73 whole entry, stated change not applied, the tested form may be a part): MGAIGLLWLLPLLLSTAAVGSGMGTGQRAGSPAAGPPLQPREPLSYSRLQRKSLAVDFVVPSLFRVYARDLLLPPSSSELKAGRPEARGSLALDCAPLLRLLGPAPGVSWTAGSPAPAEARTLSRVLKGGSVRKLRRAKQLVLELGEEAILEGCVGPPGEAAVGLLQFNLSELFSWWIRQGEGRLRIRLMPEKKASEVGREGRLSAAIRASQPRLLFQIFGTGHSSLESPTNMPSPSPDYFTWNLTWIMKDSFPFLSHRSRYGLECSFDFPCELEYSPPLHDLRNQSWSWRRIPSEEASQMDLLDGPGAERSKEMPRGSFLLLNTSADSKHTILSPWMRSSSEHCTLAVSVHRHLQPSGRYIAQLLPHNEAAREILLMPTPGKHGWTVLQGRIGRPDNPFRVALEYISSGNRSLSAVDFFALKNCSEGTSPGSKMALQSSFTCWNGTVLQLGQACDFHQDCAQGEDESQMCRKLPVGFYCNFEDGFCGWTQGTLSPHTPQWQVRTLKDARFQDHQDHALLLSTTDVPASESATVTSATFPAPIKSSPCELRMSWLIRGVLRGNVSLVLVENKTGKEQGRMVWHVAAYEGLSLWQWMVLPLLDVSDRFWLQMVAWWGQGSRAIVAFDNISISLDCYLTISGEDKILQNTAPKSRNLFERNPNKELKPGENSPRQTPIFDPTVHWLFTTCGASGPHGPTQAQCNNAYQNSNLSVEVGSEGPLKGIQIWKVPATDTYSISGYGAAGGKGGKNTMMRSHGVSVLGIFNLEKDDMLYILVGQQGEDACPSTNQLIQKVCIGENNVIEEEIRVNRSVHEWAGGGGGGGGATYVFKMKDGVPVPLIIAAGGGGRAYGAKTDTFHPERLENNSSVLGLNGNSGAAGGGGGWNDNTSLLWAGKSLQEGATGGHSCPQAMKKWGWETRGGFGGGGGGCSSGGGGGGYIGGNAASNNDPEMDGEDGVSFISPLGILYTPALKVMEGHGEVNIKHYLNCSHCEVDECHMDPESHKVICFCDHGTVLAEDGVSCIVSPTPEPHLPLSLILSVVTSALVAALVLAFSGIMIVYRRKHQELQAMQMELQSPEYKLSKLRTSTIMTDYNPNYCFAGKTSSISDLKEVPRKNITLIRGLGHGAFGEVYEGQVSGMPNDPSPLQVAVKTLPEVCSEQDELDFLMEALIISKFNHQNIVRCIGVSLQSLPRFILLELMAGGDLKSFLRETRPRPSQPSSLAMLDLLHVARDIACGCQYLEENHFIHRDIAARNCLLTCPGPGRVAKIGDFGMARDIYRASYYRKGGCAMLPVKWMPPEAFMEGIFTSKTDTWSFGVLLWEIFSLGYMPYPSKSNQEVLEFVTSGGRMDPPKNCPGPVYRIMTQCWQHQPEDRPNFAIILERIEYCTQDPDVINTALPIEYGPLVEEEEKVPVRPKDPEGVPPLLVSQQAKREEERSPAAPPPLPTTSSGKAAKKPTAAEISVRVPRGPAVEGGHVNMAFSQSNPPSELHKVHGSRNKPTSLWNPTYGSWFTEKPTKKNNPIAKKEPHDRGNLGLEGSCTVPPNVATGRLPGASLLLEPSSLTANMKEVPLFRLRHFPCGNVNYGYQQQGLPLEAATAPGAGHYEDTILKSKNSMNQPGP

On to `C[C@H]1CNC(=O)c2cnn3cc4c(nc23)N(Cc2cc(F)cnc2O1)C1(CCCC1)CO4` [Compound 57, (12′S)-8′-fluoro-12′-methyl-3′H,6′H,12′H,13′H,14′H,15′H-spiro[cyclopentane-1,4′-[2,11]-dioxa[5,10,14,17,18,19]hexaaza-[18,1](metheno)[1,4]oxazino[3,4-i]pyrazolo[4,3-f]pyrido[3,2-l] [1,4,8,10]oxatriazacyclotridecin]-15′-one], for which the IC50 in the assay on KM12 (TPM3-TRKA) is below 0.2 nM; with KG-1 cell (OP2-FGFR1), 4000 nM; against BaF3 EML4-ALK it was 2210 nM.
For `C[C@@H]1COc2cn3ncc4c3nc2N1Cc1cc(F)cnc1OCC1(CCCC1)NC4=O` [Compound 52, (4'R)-8'-fluoro-4'-methyl-3'H,4'H,6'H,12'H,14'H,15'H-spiro[cyclopentane-1,13'-[2,11]-dioxa[5,10,14,17,18,19]hexaaza-[18,1](metheno)[1,4]oxazino[3,4-i]pyrazolo[4,3-f]pyrido[3,2-l] [1,4,8,10]oxatriazacyclotridecin]-15’-one], in that order: below 0.2 nM, 359 nM and 276 nM.
For `C[C@@H]1COc2ncc(F)cc2CN2c3nc4c(cnn4cc3OCC23CC(F)(F)C3)C(=O)N1` [Compound 63, (13′R)-3,3,8′-trifluoro-13′-methyl-3′H,6′H,12′H,13′H,14′H,15′H-spiro[cyclobutane-1,4′-[2,11]-dioxa[5,10,14,17,18,19]hexaaza-[18,1](metheno)[1,4]oxazino[3,4-i]pyrazolo[4,3-f]pyrido[3,2-l] [1,4,8,10]oxatriazacyclotridecin]-15′-one], in that order: below 0.2 nM, 10000 nM and 576 nM.
As for `C[C@@H]1COc2ncc(F)cc2CN2c3nc4c(cnn4cc3OCC[C@H]2C)C(=O)N1` [Compound 22, (5R,14R)-9-fluoro-5,14-dimethyl-4,5,14,15-tetrahydro-3H,7H-19,1-(metheno)[1,4]oxazepino[3,4-i]-pyrazolo[4,3-f]pyrido[3,2-l] [1,4,8,10]oxatriazacyclotridecin-16(13H)-one], the IC50 is below 0.2 nM with KM12 (TPM3-TRKA), 784 nM with KG-1 cell (OP2-FGFR1) and 731 nM against BaF3 EML4-ALK.
For `C[C@@H]1CCOc2ncc(F)cc2CN2c3nc4c(cnn4cc3OC[C@H]2C)C(=O)N1` [Compound 32, (6R,16R)-12-fluoro-6,16-dimethyl-5,6,7,8,16,17-hexahydro-4H,14H-1,19-(metheno)[1,4]oxazino[4,3-e]pyrazolo[3,4-h]pyrido[2,3-b] [1,5,7,11]oxatriazacyclotetradecin-4-one], in that order: below 0.2 nM, 137 nM and 74.6 nM.
For `CC[C@@H]1COc2cn3ncc4c3nc2N1Cc1cc(F)cnc1OCC(C)(C)CNC4=O` [Compound 76, (16R)-16-ethyl-12-fluoro-7,7-dimethyl-5,6,7,8,16,17-hexahydro-4H,14H-1,19-(metheno)[1,4]-oxazino[4,3-e]pyrazolo[3,4-h]-pyrido[2,3-b][1,5,7,11]oxatriaza-cyclotetradecin-4-one], in that order: below 0.2 nM, 0.8 nM and 35.3 nM.
For `C[C@@H]1COc2cn3ncc4c3nc2N1Cc1cc(F)cnc1OCC(F)(F)CNC4=O` [Compound 79, (16R)-7,7,12-trifluoro-16-methyl-5,6,7,8,16,17-hexahydro-4H,14H-1,19-(metheno)[1,4]oxazino[4,3-e]pyrazolo[3,4-h]pyrido[2,3-b][1,5,7,11]oxatriazacyclotetra-decin-4-one] the same measures were below 0.2 nM, 9.9 nM and 31.7 nM.
Turning to `C[C@@H]1COc2ncc(F)cc2CN2CC(F)(F)COc3cn4ncc(c4nc32)C(=O)N1` [Compound 74, (14R)-4,4,9-trifluoro-14-methyl-4,5,14,15-tetrahydro-3H,7H-19,1-(metheno)[1,4]oxazepino[3,4-i]-pyrazolo[4,3-f]pyrido[3,2-l] [1,4,8,10]oxatriazacyclotridecin-16(13H)-one], the figures for the IC50 in the assay with KM12 (TPM3-TRKA), in the assay on KG-1 cell (OP2-FGFR1) and against BaF3 EML4-ALK were 84 nM, 3000 nM and above 10000 nM, respectively.
For `C[C@@H]1COc2cn3ncc4c3nc2N1Cc1cc(F)cnc1OCCC(C)(C)NC4=O` [Compound 70, (16R)-12-fluoro-6,6,16-trimethyl-5,6,7,8,16,17-hexahydro-4H,14H-1,19-(metheno)[1,4]oxazino[4,3-e]pyrazolo[3,4-h]pyrido[2,3-b] [1,5,7,11]oxatriazacyclotetradecin-4-one], in that order: below 0.2 nM, 51.7 nM and 35.7 nM.
For `C[C@H]1CNC(=O)c2cnn3cc4c(nc23)N(Cc2cc(F)cnc2O1)C1(CCC1)CO4` [Compound 56, (12′S)-8′-fluoro-12′-methyl-3′H,6′H,12′H,13′H,14′H,15′H-spiro[cyclobutane-1,4′-[2,11]-dioxa[5,10,14,17,18,19]-hexaaza[18,1](metheno)[1,4]-oxazino[3,4-i]pyrazolo[4,3-f]-pyrido[3,2-l][1,4,8,10]oxatriaza-cyclotridecin]-15′-one], in that order: below 0.2 nM, 3000 nM and 919 nM.
For `C[C@H]1CNC(=O)c2cnn3cc4c(nc23)N(Cc2cc(F)ccc2O1)[C@H](CO)CO4` [Compound 12, (4R,12S)-8-fluoro-4-(hydroxymethyl)-12-methyl-3,4,13,14-tetrahydro-6H-18,1-(metheno)[1,4]oxazino[3,4-i]pyrazolo[4,3-f][1,4,8,10]benzoxatriazacyclotridecin-15(12H)-one] the same measures were 0.8 nM, 2000 nM and 1460 nM.
As to `C[C@@H]1COc2cn3ncc4c3nc2N1Cc1cc(F)cnc1OCC1(CC(F)(F)C1)NC4=O` [Compound 50, (4′R)-3,3,8′-trifIuoro-4′-methyl-3′H,4′H,6′H,12′H,14′H,15′H-spiro[cyclobutane-1,13′-[2,11]-dioxa[5,10,14,17,18,19]hexaaza-[18,1](metheno)[1,4]oxazino[3,4-i][4,3-f]pyrido[3,2-l][1,4,8,10]-oxatriazacyclotridecin]-15′-one], the concentration for half-maximal inhibition (IC50) with KM12 (TPM3-TRKA) is below 0.2 nM; in the assay with KG-1 cell (OP2-FGFR1), 412 nM; on BaF3 EML4-ALK, 583 nM.
With `C[C@@H]1COc2ncc(F)cc2[C@@H](C)N2c3nc4c(cnn4cc3OC[C@H]2C)C(=O)N1` [Compound 83, (4R,6R,13R)-8-fluoro-4,6,13-trimethyl-3,4,13,14-tetrahydro-6H-18,1-(metheno)[1,4]oxazino[3,4-i]pyrazolo[4,3-f]pyrido[3,2-l][1,4,8,10]oxatriazacyclotridecin-15(12H)-one], the IC50 in the assay on KM12 (TPM3-TRKA) was below 0.2 nM; in the assay with KG-1 cell (OP2-FGFR1) it was 30.2 nM; at BaF3 EML4-ALK, 139 nM.
For `C[C@@H]1COc2cn3ncc4c3nc2N1Cc1cc(F)cnc1OCC1(CCC1)CNC4=O` [Compound 47, (16′R)-12′-fluoro-16′-methyl-4′H,5′H,6′H,8′H,14′H,16′H,17′H-spiro[cyclobutane-1,7′-[9,18]-dioxa[1,2,5,10,15,20]hexaaza-[1,19](metheno)[1,4]oxazino-[4,3-e]pyrazolo[3,4-h]pyrido-[2,3-b][1,5,7,11]oxatriazacyclo-tetradecin]-4′-one] the same measures were below 0.2 nM, 24.2 nM and 68 nM.
For `CC[C@@H]1COc2cn3ncc4c3nc2N1Cc1cc(F)cnc1OCC[C@H](C)NC4=O` [Compound 75, (6S,16R)-16-ethyl-12-fluoro-6-methyl-5,6,7,8,16,17-hexahydro-4H,14H-1,19-(metheno)[1,4]-oxazino[4,3-e]pyrazolo[3,4-h]-pyrido[2,3-b][1,5,7,11]oxatriaza-cyclotetradecin-4-one], the IC50 was below 0.2 nM in the assay with KM12 (TPM3-TRKA), 9.7 nM with KG-1 cell (OP2-FGFR1) and 19.8 nM against BaF3 EML4-ALK.
For `C[C@@H]1COc2cn3ncc4c3nc2N1Cc1cc(F)cnc1OC[C@H](O)CNC4=O` [Compound 89, (7R,16R)-12-fluoro-7-hydroxy-16-methyl-5,6,7,8,16,17-hexa-hydro-4H,14H-1,19-(metheno)-[1,4]oxazino[4,3-e]pyrazolo[3,4-h]pyrido[2,3-b][1,5,7,11]oxatriaza-cyclotetradecin-4-one] the same measures were below 0.2 nM, 394 nM and 1890 nM.
Turning to `CC[C@@H]1COc2cn3ncc4c3nc2N1Cc1cc(F)ccc1OC[C@@H](C)NC4=O` [Compound 13, (4R,13R)-4-ethyl-8-fluoro-13-methyl-3,4,13,14-tetrahydro-6H-18,1-(metheno)[1,4]oxazino[3,4-i]pyrazolo[4,3-f][1,4,8,10]benzo-xatriazacyclotridecin-15(12H)-one], the IC50 in the assay with KM12 (TPM3-TRKA) worked out at 0.2 nM; in the assay with KG-1 cell (OP2-FGFR1), 145 nM; on BaF3 EML4-ALK it was 28 nM.
For `C[C@H]1CNC(=O)c2cnn3cc4c(nc23)N(Cc2cc(F)cnc2O1)CC(F)(F)CO4` [Compound 77, (13S)-4,4,9-trifluoro-13-methyl-4,5,14,15-tetrahydro-3H,7H-19,1-(metheno)[1,4]oxazepino[3,4-i]-pyrazolo[4,3-f]pyrido[3,2-l] [1,4,8,10]oxatriazacyclotridecin-16(13H)-one], in that order: 446 nM, 10000 nM and above 10000 nM.
For `C[C@@H]1COc2cn3ncc4c3nc2N1Cc1cc(F)ccc1O[C@@H](C)CNC4=O` [Compound 5, (4R,12S)-8-fluoro-4,12-dimethyl-3,4,13,14-tetrahydro-6H-18,1-(metheno)[1,4]oxazino[3,4-i]-pyrazolo[4,3-f][1,4,8,10]benzo-xatriazacyclotridecin-15(12H)-one] the same measures were 0.2 nM, 194 nM and 37.7 nM.

One may read the IC50 as the midpoint of a concentration-inhibition curve.

The values above are taken from patent US20210087206A1, “MACROCYCLIC KINASE INHIBITORS AND THEIR USE” (TURNING POINT THERAPEUTICS, INC., priority 2017, published 2021).
